# Experimental data: patent US20260021186A1, “Fatty Acid-D-Amino Acid Peptides Conjugates as Anaplerotic Compounds for Use in Treating Propionic Acidemia, Methylmalonic Acidurias, and Energy Metabolic Disorders” (University of Pittsburgh - Of the Commonwealth System of …, priority 2022, published 2026)
# What was measured:
# [1] = tested on: Fb859 propionic acidemia patient fibroblasts; assay: Lysine succinylation of cellular proteins by immunofluorescence confocal microscopy; assay type: cell-based, human; settings: media without glucose; for lysine succinylation (green) signal: FIGS. 8A-8F, 30 μM and 90 μM, pyruvate, glutamine, stripped FBS; for lysine succinylation (green staining) compared to untreated cells: FIG. 7, 90 μM, 72 hours, glutamine or pyruvate, lipid stripped FBS
# Protocol: FIG. 7 are immunocytochemistry photomicrographs showing the effect of incubation of Fb859 propionic acidemia patient fibroblasts on for lysine succinylation with 90 μM of PMA010, 90 μM of PMA011, 90 μM of succinic acid, 90 μM of methylmalonic acid, or 90 μM adipic acid for 72 hours. Immunocytochemistry of the fibroblast cells were stained for anti-succinyllysine antibody, anti-MTCO1 antibody and DAPI for nuclei. Instrument: Zeiss LSM 710 confocal Microscopy. Magnification: 40×. The cells were grown in glass coverslips at a seeding density of 3-5×10^4 cells. The media for untreated and treatment groups had no glucose, glutamine or pyruvate, and lipid stripped FBS was included instead of regular FBS. Scale bar=20 μm.
# FIGS. 8A-8F are a comparison of lysine succinylation of cellular proteins visualized by immunofluorescence confocal microscopy in a Propionic Acidemia (Fb859) patient untreated (FIG. 8A) and treated with 30 μM and 90 μM of D-Serine (FIG. 8B), 30 µM and 90 μM of PMA007 (FIG. 8C), or 30 μM and 90 μM of PMA010 (FIG. 8D). Scale bar=20 μm. FIG. 8E is a bar graph showing the quantification of the percent change in lysine succinylation (green) signal, from the immunofluorescence confocal micrographs of FIGS. 8B and 8C, in response to the treatment of D-serine and PMA007. FIG. 8F is a bar graph showing the quantification of the percent change in lysine succinylation (green) signal, from the immunofluorescence confocal micrographs of a D-Serine repeat experiment and FIG. 8D, in response to the treatment of D-serine and PMA010. Asterisks indicate statistical significance calculated at the raw data level (n=3); **P<0.01, ***P<0.001, ****P<0.0001 statistically compared to untreated. Statistical analysis used T-test.
# Immunohistochemistry: Patient cells were grown in glass coverslips at a seeding density of 3-5×10^4 cells. The media for untreated and treatment groups had no glucose, glutamine or pyruvate, and lipid stripped FBS was included instead of regular FBS. NIH Image J software was used to quantify the fluorescence intensity from 50-60 cells per group. Immunocytochemistry of propionic acidemia patient (Fb859) fibroblast cells lines stained for anti-succinyllysine (Green), anti-MTCO1 (Red), or anti-TOMM20 antibodies, and DAPI (Blue) for nuclei. Instrument: Zeiss LSM 710 confocal Microscopy. Statistical analysis used Tukey multiple range test. ****P<0.0001, [PMA010] (90 μM) treatment group statistically compared to control cells grown in the presence of regular complete DMEM media, untreated and [PMA010] (30 μM) cells grown in the absence of glucose/pyruvate/L-glutamine.
# PA patient cells, Fb859 = assay: Measurement of mitochondrial respiration (Seahorse XF MitoStress test, OCR); assay type: cell-based, human; settings: FIGS. 12A-12D; 30 μM and 90 μM for 72 h
# Protocol: Measurement of Mitochondrial Respiration Seahorse: Fb859 cells were grown in regular DMEM media until 85-90% confluency. The cells were harvested and seeded at a concentration of 25,000 cells/80 μl (n=8 replicates) in poly-D lysine coated XFe seahorse 96well plate in regular DMEM media and incubated overnight at 37° C. in a 5% CO2 incubator. Following day, the culture media was replaced in designated wells with the following for 72 h:180 μl of Specialty Media A (seahorse XFDMEM base media+10% fat stripped FBS+Glucose+sodium pyruvate+L-glutamine+0.5 mM carnitine). 180 μl of Specialty Media B (scahorse XFDMEM base media+10% stripped FBS+0.5 mM carnitine and no added glucose, sodium pyruvate or glutamine). 180 μl of Specialty media B containing experimental compounds. After 72 h incubation the Specialty media A & B was replaced in respective designated wells with 180 μL Seahorse XF DMEM base media containing glucose, sodium pyruvate. […] OCR was determined (Seahorse XF MitoStress test). Finally, cells were lysed, and protein content was determined. […]
# Measurement of Mitochondrial Respiration: Control Fb826 and Patient Fb859 cells were grown in regular DMEM media without adding extra glutamine until 85-90% confluency. […] Oxygen consumption rate (OCR) was determined (Seahorse XF MitoStress test). Finally, cells were lysed, and protein content was determined. […]
# HEK293 PCCA−/− cells = assay: Lysine succinylation of cellular proteins by immunofluorescence confocal microscopy; assay type: cell-based, human; settings: FIGS. 9C, 9D; 30 μM and 90 μM; media without glucose, pyruvate, and glutamine
# Protocol: FIGS. 9A-9F are a comparison of lysine succinylation of cellular proteins visualized by immunofluorescence confocal microscopy in human HEK293 control and HEK293 PCCA^−/− cells untreated (FIGS. 9A and 9B) and treated with 30 μM and 90 μM of PMA007 (FIG. 9C) or 30 μM and 90 μM of PMA010 (FIG. 9D). The cells in FIGS. 9B, 9C, and 9D were grown in media without glucose, pyruvate, and glutamine. Scale bar=20 μm. FIG. 9E is a bar graph showing the quantification of the percent change in lysine succinylation (green) signal, from the immunofluorescence confocal micrographs of FIGS. 9B and 9C, in response to the treatment of PMA007. FIG. 9F is a bar graph showing the quantification of the percent change in lysine succinylation (green) signal, from the immunofluorescence confocal micrographs of FIGS. 9B and 9D, in response to the treatment of PMA010. Asterisks indicate statistical significance calculated at the raw data level (n=3); **P<0.01. ****P<0.0001 statistically compared to untreated. Statistical analysis used T-test.
# FIGS. 9A-9F are a comparison of lysine succinylation of cellular proteins visualized by immunofluorescence confocal microscopy in human HEK293 control and in untreated and treated HEK293 PCCA^−/− knock out cells. […] The PMA007 treatment data in the bar graph of FIG. 9E are the quantitation of the images of FIG. 9C compared to untreated control in FIG. 9B. […]
# rat liver mitochondrial = settings: in vitro; cited from earlier work
# [2] = tested on: glutaric acidemia II (GA II) fibroblast cell line Fb930; assay: Mitochondrial ROS production using MitoSOX Red; assay type: cell-based, human; settings: FIG. 15D; 600 and 1200 μM, 72 h; preliminary test
# Source text: (§1) FIGS. 15A-15D are graphs showing the measurement of mitochondrial reactive oxygen species (ROS) production using MitoSOX Red as Superoxide indicator probe. FIG. 15A is a graph showing control fibroblast cell line FB826 treated with PMA010, PMA011, PMA019, and PMA020. FIG. 15B is a graph showing propionic acidemia (PA) patients' fibroblast cell linc Fb859 treated with PMA010, PMA011, PMA019, and PMA020. FIG. 15C is a graph showing propionic acidemia (PA) patients' fibroblast cells line Fb900 treated with PMA010, PMA011, PMA019, and PMA020. FIG. 15D is a graph comparing ROS production levels in response to treatment with PMA011 in Control fibroblast cell line (FB826), PA fibroblast cell line (Fb900), and glutaric acidemia II (GA II) patient fibroblast cell lines (Fb930, Fb961). Data are the average of readings from 3 replicate wells.
# (§2) Measurement of mitochondrial ROS production using MitoSOX Red as superoxide indicator probe: control (Fb826), PA patient (Fb859, Fb900) and GA II patient (Fb930, Fb961) fibroblasts were grown in regular DMEM media containing glucose/pyruvate/L-glutamine until 85-90% confluency. The cells were harvested and seeded at a concentration of 25,000 cells/80 μl (n=3) in cell culture treated black wall 96 well microplate with clear bottom in regular DMEM media containing glucose/pyruvate/L-glutamine and incubated overnight at 37° C. in a 5% CO2 incubator. Following day, the culture media was replaced in designated wells with the following for 72 h: 150 μl regular DMEM (Glucose+10% FBS+sodium pyruvate+L-glutamine+0.5 mM carnitine). 150 μl of Regular DMEM containing experimental compounds (180 and 640 μM) PMA010 or PMA011 or PMA 019 and (640 μM) PMA020 in control and propionic acidemia patient fibroblasts. 150 μl of regular DMEM containing experimental compounds (600 and 1200 μM) PMA011 in Fb930 and (1200 μM) PMA011 in Fb961 GA II patient fibroblast. After 72 h incubation the wells were washed twice with 150 μL of Seahorse XFDMEM base media and in respective designated wells the following Assay buffer (150 μL of seahorse XFDMEM base media containing glucose, sodium pyruvate and Glutamine) was used along with 5 μM MitoSOX reagent and incubated at 37° C. non-CO2 incubator for 15 minutes protected from light. After 15 minutes incubation the cells were washed twice with 150 μL of seahorse XFDMEM base media and replaced with measurement buffer, which is same as the wash buffer. The fluorescence was monitored with excitation at 520 nm and emission at 580 nm. Finally, cells were lysed, and protein content was determined. Data is normalized to protein concentration and fluorescence is reported as MitoSOX Red (AFU)/mg protein.
# [3] = tested on: propionic acidemia (PA) fibroblast cell line Fb900; assay: Mitochondrial ROS production using MitoSOX Red; assay type: cell-based, human; settings: FIG. 15C; 180 and 640 μM, 72 h
# Source text: as §1, §2
# [4] = tested on: glutaric acidemia II (GA II) fibroblast cell line Fb961; assay: Mitochondrial ROS production using MitoSOX Red; assay type: cell-based, human; settings: FIG. 15D; 1200 μM, 72 h; preliminary test
# Source text: as §1, §2
# PA patients = settings: clinical study initiated in 2008; cited from earlier work
smiles,measurement,setting,value
"N[C@H](COC(=O)CCCCC(=O)O)C(=O)N[C@@H](Cc1c[nH]cn1)C(=O)O [PMA007, 6-((R)-2-amino-3-(((S)-1-carboxy-2-(1H-imidazol-4-yl)ethyl)amino)-3-oxopropoxy)-6-oxohexanoic acid]",lysine succinylation (green) signal,[1],Restoration of lysine succinylation (green) signal
same,oxygen consumption parameters compared to individual components D-Serine and D-Histidine,"PA patient cells, Fb859",improved
same,lysine succinylation (green) signal,HEK293 PCCA−/− cells,green color was restored
CC(C(=O)O)C(=O)O [methylmalonic acid],lysine succinylation (green staining) compared to untreated cells,[1],obvious increase in the green staining
O=C(O)C[C@H](O)C(=O)O [L-malate],reduction of propionate level,rat liver mitochondrial,46%
same,reduction of propionyl-CoA levels in the mitochondrial matrix,rat liver mitochondrial,62%
"O=C(O)CCC(=O)O [succinic acid, reference compound]",lysine succinylation (green staining) compared to untreated cells,[1],obvious increase in the green staining
"N[C@H](CO)C(=O)O [D-serine, reference compound]",lysine succinylation (green) signal,[1],Restoration of lysine succinylation (green) signal
"CC(C(=O)O)C(=O)N[C@H](C)C(=O)N[C@H](Cc1c[nH]cn1)C(=O)O (stereo partly drawn) [PMA011, 3-(((R)-1-(((R)-1-carboxy-2-(1H-imidazol-4-yl)ethyl)amino)-1-oxopropan-2-yl)amino)-2-methyl-3-oxopropanoic acid]",lysine succinylation (green staining) compared to untreated cells,[1],obvious increase in the green staining
same,ROS detected (MitoSOX Red) compared to no treatment,[2],significant decrease in ROS
same,ROS detected (MitoSOX Red),[3],similarly effective
same,ROS detected (MitoSOX Red) compared to no treatment,[4],significant decrease in ROS
O=C(O)CC(O)(CC(=O)O)C(=O)O [citrate],clinical benefit of supplementation,PA patients,can be beneficial in some cases
"O=C(O)CCCCC(=O)O [adipic acid, reference compound]",lysine succinylation (green staining) compared to untreated cells,[1],obvious increase in the green staining
